On the set-up of data set [1]: method as in PMID 36678931. Conditions: pH 6.5, over 6 d; cited from earlier work.
On the set-up of data set [2]: method as in PMID 33979164. Conditions: cited from earlier work.
On the set-up of data set [3]: method as in PMID 33979164. The following applies: cited from earlier work. This is another data set of the same source.
On the set-up of data set [4]: method as in PMID 33979164. The following applies: cited from earlier work. The source holds these as a separate data set.
The nature of data set [5]: Pharmacokinetic study after single SC injection in BALB/c mice. Type of data set: in vivo. Conditions: mouse, in vivo, single SC 30 mg/kg. The procedure: The pharmacokinetic profile of prodrug 25 was evaluated in mice, in a study undertaken at WuXi AppTec. Prodrug 25 was dissolved in a sterile vehicle of DMSO/Solutol HS15/water (10:10:80) to give a clear solution with a final concentration of 6 mg/mL. The same procedure was used to prepare a 6 mg/mL solution of RAL as a control. Six male BALB/c mice were used, each weighing 18–25 g and aged between 7–9 weeks (three per group). A single 30 mg/kg dose of prodrug 25 was administered to each animal in the treatment group (subcutaneously, in the thoracic region). Similarly, RAL (30 mg/kg) was administered to each animal in the control group. Blood samples were taken at the time points indicated below, up to the experiment endpoint (96 h).
For each animal, blood samples (30 μL each) were collected from the submandibular or saphenous vein over a period of 96 h, at the following time points: zero/pre-dose; then 0.25, 0.5, 1, 2, 3, 4, 5, 6, 24, 48, and 96 h. All samples were transferred into pre-chilled commercial K2EDTA tubes and placed on wet ice until processing for plasma, which was obtained by centrifugation at 4 °C and 3200× g for 10 min, within 30 min of sampling. The plasma samples were transferred to polypropylene tubes, snap-frozen on dry ice, and kept at −70 ± 10 °C until LC-MS/MS analysis.
An LC-MS/MS method was developed to measure the concentrations of prodrug 25 and RAL in the biological matrix. Two mobile phases were used: mobile phase A (0.025% NH4OH and 2 mM NH4OAc in 95:5 v/v water/MeCN) and mobile phase B (0.025% NH4OH and 2 mM NH4OAc in 5:95 v/v water/MeCN). A UPLC method was performed using an LC-MS/MS-BM Triple Quad 6500 plus system with an ACQUITY UPLC BEH C18 1.7 μm column (2.1 × 50 mm) at a flow rate of 0.65 mL/min. The assay time was 2.5 min, and the solvent B composition was as follows: 10–100% (0.2–1.4 min), 30% (1.41–1.7 min), 95% (2.0–2.4 min), and 10% (2.41–2.5 min). The retention times for the prodrug, RAL and the internal standards (tolbutamide and verapamil) were 0.76, 1.04, 0.66, and 0.97 min, respectively. Quantification was performed by monitoring the transition of m/z 835.3 [M+H]^+ to 457.2 for prodrug 25, representing the cyclisation of the linker with the amidic RAL such as in side-product 22; whereas for RAL, the transition m/z 445.2 [M+H]^+ to 361.2 was followed, representing the loss of the 2-methyl-1,3,4-oxadiazole moiety as the main fragmentation pathway. For the internal standards, the m/z transition from 455.2 [M+H]^+ to 164.9 was used for verapamil (corresponding to formation of the verapamil fragment [CH2CH2-(3,4-dimethoxy phenyl)]^+), and for tolbutamide, the transition of m/z of 271.1 [M+H]^+ to 155.1 was used, representing formation of the [CH3-Ph-SO2]^+ fragment. […] The method was linear over the measured standard concentrations for 25 and RAL. The mean plasma concentration was determined for 25 and RAL (as metabolite or control) at each sampling time point. Pharmacokinetic parameters were then calculated by non-compartmental analysis of plasma concentration/time profiles using the Phoenix WinNonlin 6.3 software. The computed parameters were as follows: peak plasma concentration (Cmax); the time over which the initial concentration is reduced to half (t½); area under the plasma concentration versus time curve from time zero to 96 h (AUC 0–96 h); and mean residence time from time zero to 96 h (MRT 0–96 h).
Since in vitro models are not fully predictive of in vivo pharmacokinetics, especially for prodrugs, assessment of these characteristics still relies on in vivo studies. Therefore, the pharmacokinetic profile of prodrug 25 was evaluated in mice. Compound 25 and the control (RAL) were dissolved in DMSO/Solutol HS15/water (10:10:80). For a single SC injection of 25 (30 mg/kg) in BALB/c mice (n = 3), the plasma concentrations of prodrug and released RAL were measured at the following time points: zero/pre-dose; then 0.25, 0.5, 1, 2, 3, 4, 5, 6, 24, 48, and 96 h. […]

On the set-up of data set [6]: method as in PMID 23515248. Conditions: cited from earlier work.
On the set-up of data set [7]: method as in PMID 18321239. Conditions: cited from earlier work.
[8] abbreviates: plasma level of the dosed compound, male BALB/c mice, n = 3.

Here are results for 4 compounds from publication PMC10224444, “Novel Perspectives on the Design and Development of a Long-Acting Subcutaneous Raltegravir Injection for Treatment of HIV—In Vitro and In Vivo Evaluation” (Pharmaceutics, 2023).

The term Cmax denotes the highest concentration seen after dosing. As a reminder, the Tmax is the time from dosing to the highest level. A word on the pKa: it is the pH at which an ionisable group is half protonated.

Turning to `C#CCCCNCCCCOC(=O)OCOc1ccc(N)cc1C(=O)O` [Compound 4], the “release of mesalamine over 6 d” value in data set [1] is 92%.
With `CNCCOC(=O)OCOc1c(-c2ccc(Oc3ccc(OC(F)(F)F)cc3)cc2F)c(C)nc2cc(OC)c(Cl)cc12` [Compound 1], the “parent compound released within 1 h” value in data set [2] (pH 7.0, within 1 h) is > 90%. Moreover, the “aqueous solubility compared with the parent compound” value in data set [3] is reported as “enhanced”. The “oral bioavailability compared with the parent compound” value in data set [4] was “enhanced”.
As for `Cc1nnc(C(=O)NC(C)(C)c2nc(C(=O)NCc3ccc(F)cc3)c(O)c(=O)n2C)o1` [RAL, raltegravir], in data set [5] (male, RAL control, BALB/c mice, 6 h, read-out: plasma concentration remaining after 6 h), the concentration at 6 h came to 10.7 ng/mL. For the same compound, in data set [5] (setting [8]), the highest level (Cmax) was 6230 ng/mL and the Tmax was found to be 19.8 min. For the same compound, in data set [5] (plasma level of the dosed compound, male BALB/c mice, n = 3, read-out: AUC 0–96 h), the AUC(0-t) is 9890 ng·h/mL. Besides, the half-life in data set [5] (plasma level of the dosed compound, male BALB/c mice, n = 3, read-out: t½ (converted)) was 45.6 min. For the same compound, the pKa in data set [6] is 6.7. Also, the “half-life (t½)” value in data set [7] was 420 to 720 min.
Regarding `CNCCCOC(=O)OCOc1c(-c2ccc(Oc3ccc(OC(F)(F)F)cc3)cc2F)c(C)nc2cc(OC)c(Cl)cc12` [Compound 2], the “payload released over 5 h” value in data set [2] (pH 7.0, over 5 h) was > 55%. Also, the “aqueous solubility compared with the parent compound” value in data set [3] was “enhanced”. Besides, the “oral bioavailability compared with the parent compound” value in data set [4] is reported as “enhanced”.
